Measured values taken from patent US20260138959A1, “QUINAZOLINE DERIVATIVE COMPOUND AND USE THEREOF” (VORONOI INC., priority 2021, published 2026).

Legend:
[1] = target: T1, human PDGFR-α(wt) (Homo sapiens, UniProt P16234); test: Enzyme inhibitory activity, ADP-Glo kinase assay, PDGFR-α(wt); assay type: biochemical; settings: read-out: PDGFR-α (IC50 class)
T1 construct: purchased Signalchem P12-18G
Procedure: (§1) In order to evaluate the inhibitory activity of the compounds synthesized according to the above examples on PDGFR-α(wt), PDGFR-β(wt), c-KIT(wt), and c-KIT(D816V) kinases, the following method was performed. The compounds of examples were reacted with purified human PDGFR-α(wt) (Signalchem #P12-18G) enzyme, human PDGFR-β(wt) (Signalchem #P13-11G) enzyme, human c-KIT(wt) (Signalchem #K06-11BG) enzyme, human c-KIT(D816V) (Signalchem #C06-12LG) enzyme, and the enzyme inhibitory abilities were evaluated by the following method.
(§2) The reaction buffer was used as a composition of 40 mM Tris-HCl pH7.4, 20 mM MgCl2, 0.5 mg/ml BSA, 50 μM DTT, and the reactions of all the tests were carried out on the reaction buffer. The compound was diluted in 12 steps using a serial dilution method from a 10 mM DMSO stock, and the enzyme activity was measured at a final compound concentration of 10˜0.00005645 μM. During the test, the enzyme activity was confirmed using in vitro ADP-Glo™ kinase assay (Promega) after reacting with the proper concentration of human PDGFR-α(wt) enzyme, human PDGFR-β(wt), human c-KIT(wt) enzyme, and human c-KIT(D816V) enzyme with purified ATP and enzyme substrate at 25° C. for 1˜2 hours. At a ratio of 2:2:1, an enzyme-active reaction solution, an ADP-Glo reaction solution, and an enzyme-active detection solution were reacted to measure the inhibition of the enzyme's activity with luminoscence. Based on the […] of the enzyme activity of the solvent control that was not treated with the compound, the degree of enzyme activity inhibition was calculated according to the treatment concentration of each compound, and the concentration of each compound that inhibits 50% of enzyme activity was determined as IC50 (nM) value and the value was obtained by using GraphPad Prism 8.3.0 (GraphPad software Inc., San Diego) software. (A: IC50≤50 nM; B: 50 nM<IC50≤100 nM; C: 100 nM<IC50≤500 nM; D: IC50>500 nM).

[2] = target: T2, human PDGFR-β(wt) (Homo sapiens, UniProt P09619); test: Enzyme inhibitory activity, ADP-Glo kinase assay, PDGFR-β(wt); assay type: biochemical; settings: read-out: PDGFR-β (IC50 class)
T2 construct: purchased Signalchem P13-11G
Procedure: as §1, §2

[3] = system: Ba/F3-TEL-PDGFRα(WT); test: Proliferation inhibitory activity on Ba/F3 cell (CellTiter-Glo, 72 hours), PDGFR-α; assay type: cell-based; settings: Mus musculus, BaF3, read-out: Ba/F3 (nM) Tel-PDGFRα (GI50 class)
Procedure: (§3) Ba/F3-TEL-PDGFRα(WT), Ba/F3-TEL-PDGFβ(WT), Ba/F3-c-KIT(D816V) (Kyinno, #KC-0138), c-KIT V560G/D816V, c-KIT D814Y were seeded at 3×10^3/100 μl/well in a clear bottom white 96-well plate. A culture solution containing compounds of 12 concentrations (0.00001-2 mM) serially diluted in 3 folds and the DMSO control group was added at 0.5 μl/well each to a final concentration of 0.00005-10 μM, and then incubated in a CO2 incubator at 37° C. for 72 hours. After 72 hours, the plate treated with the compound was taken out, CellTiter-Glo® Assay (Promega) solution was treated with 100 μl/well, followed by mixing well. After mixing well for about 10 minutes at room temperature, […] was measured using a microplate reader. The data were presented as percentages in proportion to treated cells based on the vehicle, GI50 (nM) values were calculated using GraphPad Prism 8.3.0 (GraphPad software Inc., San Diego).
(§4) The inhibitory activities of Ba/F3 expressing PDGFR-α, PDGFR-β, c-KIT(D816V), c-KIT V560G/D816V, and c-KIT D814Y measured as described above were measured and shown in Table 7 below (A: GI50≤200 nM; B: 200 nM<GI50≤500 nM; C: GI50>500 nM).

[4] = system: Ba/F3-TEL-PDGFβ(WT); test: Proliferation inhibitory activity on Ba/F3 cell (CellTiter-Glo, 72 hours), PDGFR-β; assay type: cell-based; settings: Mus musculus, BaF3, read-out: Ba/F3 (nM) Tel-PDGFRβ (GI50 class)
Procedure: as §3, §4

[5] = system: Ba/F3-c-KIT(D816V); test: Proliferation inhibitory activity on Ba/F3 cell (CellTiter-Glo, 72 hours), c-KIT(D816V); assay type: cell-based; settings: Mus musculus, BaF3, read-out: Ba/F3 (nM) c-KIT (D816V) (GI50 class)
Outline: (§5)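 Viability was read by CellTiter-Glo after 72 h compound exposure at 37 °C, and GI50 values (nM) were derived from percent of vehicle-treated growth. Ba/F3 cells transformed with TEL-PDGFRα/β or mutant c-KIT were plated at 3×10^3 per well. Final compound range was 0.00005-10 μM in 12 threefold steps.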

[6] = system: c-KIT V560G/D816V; test: Proliferation inhibitory activity on Ba/F3 cell (CellTiter-Glo, 72 hours), c-KIT V560G/D816V; assay type: cell-based; settings: Mus musculus, BaF3, c-KIT V560G/D816V cells, read-out: Cell (nM) c-KIT V560G/D816V (GI50 class)
Outline: as §5

T2 sequence (P09619 33-1106): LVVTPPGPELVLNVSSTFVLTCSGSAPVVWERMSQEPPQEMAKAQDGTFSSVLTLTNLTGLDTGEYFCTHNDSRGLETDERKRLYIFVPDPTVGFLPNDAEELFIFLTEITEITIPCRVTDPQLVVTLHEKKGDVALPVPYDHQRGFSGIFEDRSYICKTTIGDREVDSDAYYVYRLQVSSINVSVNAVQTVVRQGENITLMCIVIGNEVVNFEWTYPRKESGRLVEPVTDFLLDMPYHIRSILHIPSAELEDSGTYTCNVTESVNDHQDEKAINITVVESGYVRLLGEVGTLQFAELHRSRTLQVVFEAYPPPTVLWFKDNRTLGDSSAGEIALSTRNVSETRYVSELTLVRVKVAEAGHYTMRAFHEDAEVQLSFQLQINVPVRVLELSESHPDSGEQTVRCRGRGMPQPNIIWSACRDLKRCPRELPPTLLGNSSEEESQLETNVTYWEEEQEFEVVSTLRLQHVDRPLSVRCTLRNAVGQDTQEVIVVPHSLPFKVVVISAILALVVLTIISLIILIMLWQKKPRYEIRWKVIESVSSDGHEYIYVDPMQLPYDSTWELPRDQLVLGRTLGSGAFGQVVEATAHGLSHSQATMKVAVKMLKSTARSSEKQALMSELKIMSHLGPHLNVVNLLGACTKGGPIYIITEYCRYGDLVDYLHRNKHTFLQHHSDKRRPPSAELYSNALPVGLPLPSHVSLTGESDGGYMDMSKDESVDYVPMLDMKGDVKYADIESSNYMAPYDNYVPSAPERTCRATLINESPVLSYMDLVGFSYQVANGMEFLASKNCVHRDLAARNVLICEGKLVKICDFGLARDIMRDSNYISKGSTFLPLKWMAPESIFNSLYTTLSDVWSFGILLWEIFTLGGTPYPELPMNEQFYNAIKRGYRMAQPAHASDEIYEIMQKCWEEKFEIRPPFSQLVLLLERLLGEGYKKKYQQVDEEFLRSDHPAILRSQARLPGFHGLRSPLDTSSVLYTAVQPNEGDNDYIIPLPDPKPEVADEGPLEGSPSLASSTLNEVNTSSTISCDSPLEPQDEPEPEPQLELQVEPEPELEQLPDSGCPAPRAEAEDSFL
T1 sequence (P16234 24-1089): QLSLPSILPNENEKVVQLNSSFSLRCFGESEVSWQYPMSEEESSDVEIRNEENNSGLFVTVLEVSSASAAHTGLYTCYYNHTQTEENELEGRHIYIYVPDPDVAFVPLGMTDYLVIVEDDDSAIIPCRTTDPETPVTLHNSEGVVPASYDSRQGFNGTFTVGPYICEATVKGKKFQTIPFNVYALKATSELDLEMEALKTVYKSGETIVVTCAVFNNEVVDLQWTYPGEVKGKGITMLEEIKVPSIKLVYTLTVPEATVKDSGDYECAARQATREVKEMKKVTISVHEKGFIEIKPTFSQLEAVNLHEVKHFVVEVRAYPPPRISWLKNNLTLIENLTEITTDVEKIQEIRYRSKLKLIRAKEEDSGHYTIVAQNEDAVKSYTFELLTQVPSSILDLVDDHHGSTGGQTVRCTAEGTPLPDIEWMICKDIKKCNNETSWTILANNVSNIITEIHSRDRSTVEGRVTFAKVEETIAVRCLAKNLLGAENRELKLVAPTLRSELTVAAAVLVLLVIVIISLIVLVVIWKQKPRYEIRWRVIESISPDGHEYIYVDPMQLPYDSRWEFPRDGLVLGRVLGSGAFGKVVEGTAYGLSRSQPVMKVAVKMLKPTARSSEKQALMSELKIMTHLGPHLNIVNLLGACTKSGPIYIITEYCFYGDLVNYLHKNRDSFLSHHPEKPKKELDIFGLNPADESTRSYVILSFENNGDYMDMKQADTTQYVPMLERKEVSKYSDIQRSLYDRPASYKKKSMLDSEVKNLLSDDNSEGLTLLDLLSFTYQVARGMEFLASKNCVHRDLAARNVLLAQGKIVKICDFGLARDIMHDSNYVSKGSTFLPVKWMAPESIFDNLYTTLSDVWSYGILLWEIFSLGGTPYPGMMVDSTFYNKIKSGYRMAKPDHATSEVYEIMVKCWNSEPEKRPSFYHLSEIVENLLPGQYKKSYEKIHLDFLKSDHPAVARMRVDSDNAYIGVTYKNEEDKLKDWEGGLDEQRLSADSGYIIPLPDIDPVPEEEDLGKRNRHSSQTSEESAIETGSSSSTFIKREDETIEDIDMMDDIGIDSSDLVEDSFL

Row | Structure (SMILES) | IC50 [1] | IC50 [2] | GI50 [3] | GI50 [4] | GI50 [5] | GI50 [6]
1 | COc1cc2ncnc(-c3ccc(NC(=O)Cc4ccc(F)cc4)cc3)c2cc1O [Example 124, 2-(4-fluorophenyl)-N-(4-(6-hydroxy-7-methoxyquinazolin-4-yl)phenyl)acetamide] | ≤ 50 nM | 100 to 500 nM | ≤ 200 nM | ≤ 200 nM |  | 
2 | CCN1CCC(COc2cc3c(-c4ccc(NC(=O)Cc5ccc(C(F)(F)F)cc5)cc4)ncnc3cc2OC)CC1 [Example 147, N-(4-(6-((1-ethylpiperidin-4-yl)methoxy)-7-methoxyquinazolin-4-yl)phenyl)-2-(4-(trifluoromethyl)phenyl)acetamide] | ≤ 50 nM | ≤ 50 nM | ≤ 200 nM | ≤ 200 nM | ≤ 200 nM | 
3 | COc1cc2ncnc(-c3ccc(NC(=O)Cc4ccc(C(F)(F)F)cc4)cc3)c2cc1OCCCN1CCN2CCCC2C1 (centres unmarked) [Example 161, N-(4-(6-(3-(hexahydropyrrolo[1,2-a]pyrazin-2(1H)-yl)propoxy)-7-methoxyquinazolin-4-yl)phenyl)-2-(4-(trifluoromethyl)phenyl)acetamide] |  | ≤ 50 nM |  | ≤ 200 nM | ≤ 200 nM | ≤ 200 nM
4 | CCN1CCC(COc2cc3ncnc(-c4ccc(NC(=O)C(C)(C)c5ccc(F)cc5)cc4)c3cc2OC)CC1 [Example 90, N-(4-(7-((1-ethylpiperidin-4-yl)methoxy)-6-methoxyquinazolin-4-yl)phenyl)-2-(4-fluorophenyl)-2-methylpropanamide] | ≤ 50 nM | ≤ 50 nM | ≤ 200 nM | ≤ 200 nM |  | ≤ 200 nM
5 | COc1cc2c(-c3ccc(NC(=O)Cc4ccc5c(c4)CCO5)cc3)ncnc2cc1OCCCN1CCN(C)CC1 [Example 85, 2-(2,3-dihydrobenzofuran-5-yl)-N-(4-(6-methoxy-7-(3-(4-methylpiperazin-1-yl)propoxy)quinazolin-4-yl)phenyl)acetamide] | ≤ 50 nM | ≤ 50 nM | ≤ 200 nM | ≤ 200 nM | ≤ 200 nM | 200 to 500 nM
6 | CCN1CCC(COc2cc3ncnc(-c4ccc(NC(=O)CCc5ccccc5)cc4)c3cc2OC)CC1 [Example 72, N-(4-(7-((1-ethylpiperidin-4-yl)methoxy)-6-methoxyquinazolin-4-yl)phenyl)-3-phenylpropanamide] | ≤ 50 nM | ≤ 50 nM | ≤ 200 nM | ≤ 200 nM | ≤ 200 nM | ≤ 200 nM
7 | COc1cc2ncnc(-c3ccc(NC(=O)Cc4ccc(C(F)(F)F)cc4)cc3)c2cc1OCCCN1C[C@@H]2C[C@H]1CN2C [Example 158, N-(4-(7-methoxy-6-(3-((1S,4S)-5-methyl-2,5-diazabicyclo[2.2.1]heptane-2-yl)propoxy)quinazolin-4-yl)phenyl)-2-(4-(trifluoromethyl)phenyl)acetamide] |  | ≤ 50 nM |  | ≤ 200 nM | ≤ 200 nM | 200 to 500 nM
8 | CCN1CC2(C1)CN(CCCOc1cc3c(-c4ccc(NC(=O)Cc5ccc(C(F)(F)F)cc5)cc4)ncnc3cc1OC)C2 [Example 149] | ≤ 50 nM | ≤ 50 nM | ≤ 200 nM | ≤ 200 nM | > 500 nM | 
9 | COc1cc2c(-c3ccc(NC(=O)C(C)(N)c4ccc(F)cc4)cc3)ncnc2cc1OCC(C)C (centres unmarked) [Example 10, 2-amino-2-(4-fluorophenyl)-N-(4-(7-isobutoxy-6-methoxyquinazolin-4-yl)phenyl)propanamide] | ≤ 50 nM | 100 to 500 nM | ≤ 200 nM | 200 to 500 nM | ≤ 200 nM | > 500 nM
10 | COc1cc2ncnc(-c3ccc(NC(=O)Cc4ccc(C(F)(F)F)cc4)cc3)c2cc1OCCCN1CC2(CCOCC2)C1 [Example 151, N-(4-(6-(3-(7-oxa-2-azaspiro[3.5]nonane-2-yl)propoxy)-7-methoxyquinazolin-4-yl)phenyl)-2-(4-(trifluoromethyl)phenyl)acetamide] | ≤ 50 nM | ≤ 50 nM | ≤ 200 nM | ≤ 200 nM | ≤ 200 nM | 
11 | COc1ccc(CC(=O)Nc2ccc(-c3ncnc4cc(OCC5CCN(C(C)C)CC5)c(OC)cc34)cc2)cn1 [Example 116, N-(4-(7-((1-isopropylpiperidin-4-yl)methoxy)-6-methoxyquinazolin-4-yl)phenyl)-2-(6-methoxypyridin-3-yl)acetamide] |  | ≤ 50 nM |  | ≤ 200 nM |  | ≤ 200 nM
12 | COc1cc2c(-c3ccc(NC(=O)Cc4ccc(C(F)(F)F)cc4)cc3)ncnc2cc1OCCCN1CCN(C2CC2)CC1 [Example 142, N-(4-(7-(3-(4-cyclopropylpiperazin-1-yl)propoxy)-6-methoxyquinazolin-4-yl)phenyl)-2-(4-(trifluoromethyl)phenyl)acetamide] |  | ≤ 50 nM |  | ≤ 200 nM | ≤ 200 nM | ≤ 200 nM
13 | COCCN1CCC(COc2cc3ncnc(-c4ccc(NC(=O)Cc5ccc6c(c5)OCO6)cc4)c3cc2OC)CC1 [Example 98, 2-(benzo[d][1,3]dioxol-5-yl)-N-(4-(6-methoxy-7-((1-(2-methoxyethyl)piperidin-4-yl)methoxy)quinazolin-4-yl)phenyl)acetamide] |  | ≤ 50 nM |  | ≤ 200 nM |  | ≤ 200 nM
14 | COCCOc1cc2ncnc(-c3ccc(NC(=O)C(C)(N)c4ccc(F)cc4)cc3)c2cc1OCCOC (centres unmarked) [Example 58, 2-amino-N-(4-(6,7-bis(2-methoxyethoxy)quinazolin-4-yl)phenyl)-2-(4-fluorophenyl)propanamide] | ≤ 50 nM | ≤ 50 nM | ≤ 200 nM | ≤ 200 nM | ≤ 200 nM | > 500 nM
15 | COCCN1CCC(COc2cc3ncnc(-c4ccc(NC(=O)C(C)(C)c5ccc(F)cc5)cc4)c3cc2OC)CC1 [Example 89, 2-(4-fluorophenyl)-N-(4-(6-methoxy-7-((1-(2-methoxyethyl)piperidin-4-yl)methoxy)quinazolin-4-yl)phenyl)-2-methylpropanamide] | ≤ 50 nM | ≤ 50 nM | ≤ 200 nM | ≤ 200 nM |  | ≤ 200 nM
16 | COc1cc2c(-c3ccc(NC(=O)Cc4ccsc4)cc3)ncnc2cc1OCCCN1CCN(C)CC1 [Example 84, N-(4-(6-methoxy-7-(3-(4-methylpiperazin-1-yl)propoxy)quinazolin-4-yl)phenyl)-2-(thiophene-3-yl)acetamide] | ≤ 50 nM | ≤ 50 nM | ≤ 200 nM | ≤ 200 nM | ≤ 200 nM | ≤ 200 nM
17 | COc1cc2c(-c3ccc(NC(=O)Cc4ccc5c(c4)OCO5)cc3)ncnc2cc1OCC1CCNCC1 [Example 97, 2-(benzo[d][1,3]dioxol-5-yl)-N-(4-(6-methoxy-7-(piperidin-4-ylmethoxy)quinazolin-4-yl)phenyl)acetamide] |  | ≤ 50 nM |  | ≤ 200 nM |  | > 500 nM
